Values of other authors in US20220273645A1, “NALTREXONE FORMULATION” (INTAS PHARMACEUTICALS LTD., priority 2019, published 2022).

Key:
Crohn's disease = conditions: low dose; versus other standard therapy
[1] = test system: children with moderate to severe Crohn's disease; conditions: sole therapy in children with moderate-to-severe Crohn's disease

## O=C1CC[C@@]2(O)[C@H]3Cc4ccc(O)c5c4[C@@]2(CCN3CC2CC2)[C@H]1O5 [low dose naltrexone, (4R,4aS,7aR,12bS)-3-(cyclopropylmethyl)-4a,9-dihydroxy-2,4,5,6,7a,13-hexahydro-1H-4,12-methano benzofuro[3,2-e]isoquinoline-7-one]
Crohn's disease
  safety and effectiveness for the treatment of Crohn's disease: safe, effective
[1]
  tolerability / serious adverse events: well tolerated without any serious adverse events
